This assay deals with Kibdelosporangium philippinensis (cultures A80407 and A80407.4). Kind of assay: Resistance to antibiotics of the producing cultures, antibiotic sensitivity discs on seeded ISP No. 2 agar. Conditions: both cultures.

`CC(=O)OCC1=C(C(=O)O)N2C(=O)[C@@H](NC(=O)Cc3cccs3)[C@H]2SC1` [cephalothin]: under “30 μg”, the Resistance to antibiotics entry is “resistant”.
Same read-out and setting: under `O=C(N[C@H](CO)[C@H](O)c1ccc([N+](=O)[O-])cc1)C(Cl)Cl` [chloramphenicol] stands “sensitive”.
Consider `CC[C@H]1OC(=O)[C@H](C)[C@@H](O[C@H]2C[C@@](C)(OC)[C@@H](O)[C@H](C)O2)[C@H](C)[C@@H](O[C@@H]2O[C@H](C)C[C@H](N(C)C)[C@H]2O)[C@](C)(O)C[C@@H](C)C(=O)[C@H](C)[C@@H](O)[C@]1(C)O` [erythromycin], for which, where the note is “15 μg”, the Resistance to antibiotics result was “sensitive”.
With `CCC[C@@H]1C[C@@H](C(=O)N[C@@H]([C@H]2O[C@H](SC)[C@H](O)[C@@H](O)[C@H]2O)[C@@H](C)O)N(C)C1` [lincomycin], the Resistance to antibiotics result (2 μg) was “resistant”.
On to `C1N2CN3CN1CN(C2)C3` [mandelamine], for which the Resistance to antibiotics entry (3 μg) was “sensitive”.
Turning to `CCn1cc(C(=O)O)c(=O)c2ccc(C)nc21` [nalidixic acid], where the note is “30 μg”, the Resistance to antibiotics result was “resistant”.
The same measure, in the same setting: under `NC[C@@H]1O[C@H](O[C@H]2[C@@H](O)[C@H](O[C@@H]3[C@@H](O)[C@H](N)C[C@H](N)[C@H]3O[C@H]3O[C@H](CN)[C@@H](O)[C@H](O)[C@H]3N)O[C@@H]2CO)[C@H](N)[C@@H](O)[C@@H]1O` [neomycin] stands “sensitive”; under `CO[C@@H]1[C@@H](OC(N)=O)[C@@H](O)[C@H](Oc2ccc3c(O)c(NC(=O)c4ccc(O)c(CC=C(C)C)c4)c(=O)oc3c2C)OC1(C)C` [novobiocin], “sensitive”.
Take `CC1(C)S[C@@H]2[C@H](NC(=O)Cc3ccccc3)C(=O)N2[C@H]1C(=O)O` [penicillin G]: the Resistance to antibiotics result (10 units) is listed as “resistant”.
Take `CO[C@H]1/C=C/O[C@@]2(C)Oc3c(C)c(O)c4c(O)c(c(/C=N/N5CCN(C)CC5)c(O)c4c3C2=O)NC(=O)/C(C)=C\C=C\[C@H](C)[C@H](O)[C@@H](C)[C@@H](O)[C@@H](C)[C@H](OC(C)=O)[C@@H]1C` [rifampin]: for the setting “5 μg”, the Resistance to antibiotics result was “sensitive”.
Take `Nc1ccc(S(=O)(=O)Nc2ncccn2)cc1` [sulfadiazine]: the Resistance to antibiotics entry (300 units) is recorded as “resistant”.
As for `CN(C)C1C(=O)C(C(N)=O)=C(O)C2(O)C(=O)C3=C(O)c4c(O)cccc4C(C)(O)C3CC12` (stereo not drawn) [tetracycline], the Resistance to antibiotics result (10 μg) is reported as “sensitive”.
The same measure, in the same setting: next, `NC[C@H]1O[C@H](O[C@H]2[C@H](O)[C@@H](O[C@H]3O[C@H](CO)[C@@H](O)[C@H](N)[C@H]3O)[C@H](N)C[C@@H]2N)[C@H](N)C[C@@H]1O` [tobramycin]: “resistant”.
With `COc1cc(Cc2cnc(N)nc2N)cc(OC)c1OC` [trimethoprim], where the note is “5 μg”, the Resistance to antibiotics result is on record as “resistant”.
As to `CN[C@H](CC(C)C)C(=O)N[C@H]1C(=O)N[C@@H](CC(N)=O)C(=O)N[C@H]2C(=O)N[C@H]3C(=O)N[C@H](C(=O)N[C@H](C(=O)O)c4cc(O)cc(O)c4-c4cc3ccc4O)[C@H](O)c3ccc(c(Cl)c3)Oc3cc2cc(c3O[C@@H]2O[C@H](CO)[C@@H](O)[C@H](O)[C@H]2O[C@H]2C[C@](C)(N)[C@H](O)[C@H](C)O2)Oc2ccc(cc2Cl)[C@H]1O` [vancomycin], the Resistance to antibiotics entry (30 μg) is listed as “resistant”.
In the case of gentamycin, for the setting “10 μg”, the Resistance to antibiotics entry is on record as “sensitive”.
Regarding oleandomycin, for the setting “15 μg”, the Resistance to antibiotics entry was “resistant”.
On to polymixin B, for which the Resistance to antibiotics entry (300 units) is “resistant”.

Values taken from patent US5213797A, “A80407 antibiotics” (Eli Lilly and Company, priority 1990, dated 1993).
